Measurements from patent publication US4482560A, “Carbostyril derivatives, and antihistaminic agents containing the same” (priority 1979, dated 1984).

What was measured:
[1] = test system: conjunctiva of the animal; experiment: Local anesthesia activity test; format: in vivo, guinea pig; conditions: 0.1% solution, 3 drops on conjunctiva, 60 stimulations in 30 minutes, four guinea pigs; saline control 0
Protocol: Guinea pig having about 300 to 350 g of body weight were used as the test animals. Three (3) drops of 0.1%-test compound dissolved in physiological saline solution were administered through 1/4-sized injection needle on the surface of conjuctiva of the test animal. After the administration of the test solution, the conjunctiva of the animal was stimulated ten times in every 5 minutes by a stylet (mandrine) or 1/4-sized injection needle, the stimulations were repeated 6 times within 30 minutes, thus 60 stimulations were given to the conjunctiva of the animal. The number of disappearing of eye-closing-reflexes, during 30 minutes after the administration of the test solution was counted as to the effectiveness of the local anesthesia activity. In this test, four (4) guinea pigs were used as one test group, and the test solution containing 0.1% of the test compound was applied to one test group, and physiological saline solution was, on the other hand, applied to another test group of the guinea pigs as the control.

Acute toxicity test = conditions: rat, in vivo; oral, male rats
From the text: Each of the compounds of the present invention was orally administered to male rats to determine the acute toxicity.

ileum of a guinea pig = ileum of a guinea pig (Cavia porcellus, UniProt P31389); experiment: cell-based; conditions: histamine-induced retraction of guinea pig ileum, test compound 10^-6 g/ml, 36° C., Van Rossam method; for Kb: read-out: pA2 (converted)
ileum of a guinea pig, sequence (P31389 whole entry): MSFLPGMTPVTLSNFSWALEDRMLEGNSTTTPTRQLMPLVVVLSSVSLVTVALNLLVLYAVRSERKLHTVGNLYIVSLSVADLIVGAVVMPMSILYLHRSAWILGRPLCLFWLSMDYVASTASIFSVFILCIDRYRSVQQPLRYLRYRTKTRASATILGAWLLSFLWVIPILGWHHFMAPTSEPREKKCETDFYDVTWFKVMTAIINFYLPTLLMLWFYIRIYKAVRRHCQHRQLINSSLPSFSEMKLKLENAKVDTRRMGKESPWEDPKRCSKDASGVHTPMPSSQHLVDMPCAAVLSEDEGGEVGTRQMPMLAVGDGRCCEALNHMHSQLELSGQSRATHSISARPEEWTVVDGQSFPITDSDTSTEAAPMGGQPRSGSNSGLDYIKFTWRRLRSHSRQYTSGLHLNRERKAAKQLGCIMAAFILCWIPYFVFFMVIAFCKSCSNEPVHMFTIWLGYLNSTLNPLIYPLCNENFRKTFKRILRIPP
Protocol: Pharmacological tests of the present compounds were conducted according to said method as follows:
A male guinea pig having 300 to 500 g body weight is killed by blood letting. An ileum having length of 15 cm being enucleated from the ileocecal region is dipped into Tyrode's solution (which is prepared from 8.0 g of NaCl, 0.2 g of KCl, 0.2 g of CaCl2, 1.0 g of glucose, 1.0 g of NaHCO3, 0.065 g of NaHPO4.2H2 O and 0.2135 g of MgCl2.6H2 O to make 1000 ml in total volume by adding water). Then the tissue of ileum is cut to a length of 2.5 to 3.0 cm and suspended in an organ bath filled with 30 ml of Tyrode's solution. The organ bath is kept a temperature of 36° C. while blowing a mixed gas consisting of 5% of CO2 and 95% of O2 into the bath. 10 Minutes after the blowing, 10^-6 M of histamine is added to the bath to examine the sensitivity of the tissue and a reaction curve (control) with respect to the dosage of histamine is obtained. After the dosage of histamine-reaction curve (control) become constant 10^-6 g/ml of a compound to be tested is added to the bath and further histamine is added 5 minutes later to obtain dosage-reaction curve. Retraction of the ileum is recorded on a pen-recorder through an isotonic transducer (TD-112S manufactured by Nihon Koden).

Male mice of ddy-strain = experiment: Halothane anesthesia increasing activity; format: in vivo, mouse; conditions: oral, 32 mg/kg, 1 hour before 4% Halothane for 3 minutes, male ddy mice; saline control 4.2
Protocol: Male mice of ddy-strain having about 20 g body weight were used. One test group consists of 10 mice. An aqueous Gummi Arabicum suspension of test compound (80 mg of a compound to be tested and 1 g of Gummi Arabicum/100 ml of physiological NaCl solution) was administered orally to each mouse at the dosage of 32 mg of test compound/kg body. One hour after the administration, each mouse was placed in gas respiration chamber (13×13×24 cm) and oxygen gas containing 4% of Halothane [2-bromo-2-chloro-1,1,1-trifluoroethane] was blown into the chamber at the velocity of 2 l/min for 3 minutes. A mouse anaesthetized was taken out from the chamber and the time between the introduction of anesthesia to waking was measured by righting reflex as the index. To mice of control group, 1% Gummi Arabicum aqueous physiological solution was orally administered at the dosage of 0.1 ml/kg body. (Reference: M. J. Turnbull and J. W. Watkins: Br. J. Pharmacol., 58, 27-35 (1976))

| SMILES | Number of eye-closing reflex (number of disappearing of eye-closing-reflexes during 30 minutes) [1] | LD50 (Acute toxicity test) | Kb (ileum of a guinea pig) | Time (minutes) between introduction of anesthesia and waking (righting reflex) (Male mice of ddy-strain) | pA2 (ileum of a guinea pig) |
| --- | --- | --- | --- | --- | --- |
| O=c1cc(-c2ccccc2)c2ccc(OCCCN3CCC(c4ccccc4)CC3)cc2[nH]1 [Compound 13, 4-Phenyl-7-[3-(4-phenyl-1-piperidyl)propoxy]-carbostyril monohydrochoride] | 28.0 | > 1000 mg/kg | 0.186 nM | 5.6 min | – |
| Cc1cc(=O)n(C)c2cc(OCCCN3CCN(Cc4ccc(Cl)cc4)CC3)ccc12 [C, 1,4-Dimethyl-7-{3-[4-(4-chlorobenzyl)-1-piperazin-1-yl]propoxy}-2-oxo-1,2-dihydroquinoline, reference compound] | 2.8 | – | – | – | – |
| C[N+]1(CC(O)COc2cccc3c2CCC(=O)N3)CCC(c2ccccc2)CC1 (stereo not shown) [Compound 11, 4-Phenyl-1-[2-hydroxy-3-(2-oxo-1,2,3,4-tetra-hydroquinolin-5-yloxy)propyl]-1-methyl-piperidium iodide] | 27.6 | > 1000 mg/kg | 5.89 nM | 5.2 min | – |
| CN1C(=O)CCc2c(OCC(O)CN3CCC(Cc4ccccc4)CC3)cccc21.O=C(O)C(=O)O (stereo not shown) [Compound 10, 1-Methyl-5-[2-hydroxy-3-(4-benzyl-1-piperidyl)-propoxy]-3,4-dihydrocarbostyril monooxalate] | 37.3 | > 1000 mg/kg | 0.24 nM | 4.8 min | – |
| CN1C(=O)CCc2ccc(OCCCN3CCC(Cc4ccccc4)CC3)cc21.O=C(O)C(=O)O [Compound 2, 1-Methyl-7-[3-(4-benzyl-1-piperidyl)propoxy]-3,4-dihydrocarbostyril monooxalate] | 58.0 | > 1000 mg/kg | 0.02 nM | 4.9 min | – |
| O=C1CCc2c(cccc2OCCCN2CCC(Cc3ccccc3)CC2)N1 [Compound 1, 5-[3-(4-Benzyl-1-piperidyl)propoxy]-3,4-dihydrocarbostyril] | 55.1 | > 1000 mg/kg | 0.302 nM | 4.7 min | – |
| Cc1cc(=O)n(C)c2ccc(OCCCN3CCN(Cc4ccc(Cl)cc4)CC3)cc12 [D, reference compound] | 3.8 | – | – | – | – |
| CC(=O)C1(c2ccccc2)CCN(CCCOc2ccc3c(c2)NC(=O)CC3)CC1 [Compound 15, 7-{3-[4-(4-Acetyl-4-phenyl)-1-piperidyl]}-3,4-dihydrocarbostyril] | 35.5 | > 1000 mg/kg | – | 4.7 min | 9.92 |
| Cc1cc(=O)[nH]c2cc(OCCCN3CCN(Cc4ccccc4)CC3)ccc12 [E, 4-Methyl-7-[3-(4-benzyl-piperazin-1-yl)-propoxy]-2-oxo-1,2-dihydroquinoline, reference compound] | 5.2 | – | – | – | – |
| O=C1CCc2ccc(OCC(O)CN3CCC(c4ccccc4)CC3)cc2N1 (stereo not shown) [Compound 9, 7-[2-Hydroxy-3-(4-phenyl-1-piperidyl)propoxy]-3,4-dihydrocarbostyril] | 29.2 | > 1000 mg/kg | 0.129 nM | 4.1 min | – |
